Source: ChEMBL document CHEMBL1137657, “Identification of 16S rRNA methylase-producing Acinetobacter baumannii clinical strains in North America” (2007)
The source made the active and inactive calls. The calls are words filed in the database; no cut-off is given here.

Columns and labels:
[1] = test system: Escherichia coli; assay: Antimicrobial activity against azide-resistant Escherichia coli J53 transconjugant with 16S rRNA methylase armA gene expressing Acinetobacter baumannii isolate D; type: functional, organism-based
[2] = test system: Escherichia coli; assay: Antibacterial activity against Escherichia coli DH10B expressing Acinetobacter baumannii isolate B 16S rRNA methylase armA gene; type: functional; conditions: K-12 substr. DH10B
[3] = test system: Acinetobacter baumannii; assay: Antimicrobial activity against colistin-resistant Acinetobacter baumannii 213 transconjugant with 16S rRNA methylase armA gene expressing Acinetobacter baumannii isolate D; type: functional, organism-based
[4] = test system: Escherichia coli; assay: Antimicrobial activity against azide-resistant Escherichia coli J53 transconjugant with 16S rRNA methylase armA gene expressing Acinetobacter baumannii isolate B; type: functional, organism-based
[5] = test system: Escherichia coli; assay: Antimicrobial activity against azide-resistant Escherichia coli J53 transconjugant with 16S rRNA methylase armA gene expressing Acinetobacter baumannii isolate A; type: functional, organism-based
[6] = test system: Acinetobacter baumannii; assay: Antibacterial activity against Acinetobacter baumannii isolate B expressing 16S rRNA methylase armA gene; type: functional
[7] = test system: Acinetobacter baumannii; assay: Antibacterial activity against Acinetobacter baumannii isolate D expressing 16S rRNA methylase armA gene; type: functional
[8] = test system: Acinetobacter baumannii; assay: Antimicrobial activity against colistin-resistant Acinetobacter baumannii 213 transconjugant with 16S rRNA methylase armA gene expressing Acinetobacter baumannii isolate A; type: functional, organism-based
[9] = test system: Acinetobacter baumannii; assay: Antibacterial activity against armA knockout Acinetobacter baumannii 231; type: functional, organism-based
[10] = test system: Acinetobacter baumannii; assay: Antibacterial activity against Acinetobacter baumannii isolate E expressing 16S rRNA methylase armA gene; type: functional
[11] = test system: Acinetobacter baumannii; assay: Antibacterial activity against Acinetobacter baumannii isolate C expressing 16S rRNA methylase armA gene; type: functional
[12] = test system: Escherichia coli; assay: Antimicrobial activity against azide-resistant Escherichia coli J53 transconjugant with 16S rRNA methylase armA gene expressing Acinetobacter baumannii isolate C; type: functional, organism-based
[13] = test system: Escherichia coli; assay: Antimicrobial activity against azide-resistant Escherichia coli J53 transconjugant with 16S rRNA methylase armA gene expressing Acinetobacter baumannii isolate E; type: functional, organism-based
[14] = test system: Acinetobacter baumannii; assay: Antimicrobial activity against colistin-resistant Acinetobacter baumannii 213 transconjugant with 16S rRNA methylase armA gene expressing Acinetobacter baumannii isolate C; type: functional, organism-based
[15] = test system: Acinetobacter baumannii; assay: Antimicrobial activity against colistin-resistant Acinetobacter baumannii 213 transconjugant with 16S rRNA methylase armA gene expressing Acinetobacter baumannii isolate E; type: functional, organism-based
[16] = test system: Acinetobacter baumannii; assay: Antimicrobial activity against colistin-resistant Acinetobacter baumannii 213 transconjugant with 16S rRNA methylase armA gene expressing Acinetobacter baumannii isolate B; type: functional, organism-based
[17] = test system: Acinetobacter baumannii; assay: Antibacterial activity against Acinetobacter baumannii isolate A expressing 16S rRNA methylase armA gene; type: functional

Compound | Activity [1] | MIC [2] [µg/mL] | Activity [3] | Activity [4] | Activity [5] | MIC [6] [µg/mL] | MIC [7] [µg/mL] | Activity [8] | Activity [9] | MIC [10] [µg/mL] | MIC [11] [µg/mL] | Activity [12] | Activity [13] | Activity [14] | Activity [15] | Activity [16] | MIC [17] [µg/mL]
NCC[C@H](O)C(=O)N[C@@H]1C[C@H](N)[C@@H](O[C@H]2O[C@H](CN)[C@@H](O)[C@H](O)[C@H]2O)[C@H](O)[C@H]1O[C@H]1O[C@H](CO)[C@@H](O)[C@H](N)[C@H]1O [AMIKACIN] | Active | ≥ 256 | Active | Active | Active | > 512 | > 512 | Active | Active | > 512 | > 512 | Active | Active | Active | Active | Active | > 512
GENTAMICIN | – | > 256 | – | – | – | > 512 | > 512 | – | – | > 512 | > 512 | – | – | – | – | – | > 512
NC[C@H]1O[C@H](O[C@H]2[C@H](O)[C@@H](O[C@H]3O[C@H](CO)[C@@H](O)[C@H](N)[C@H]3O)[C@H](N)C[C@@H]2N)[C@H](N)C[C@@H]1O [TOBRAMYCIN] | – | ≥ 256 | – | – | – | > 512 | > 512 | – | – | > 512 | > 512 | – | – | – | – | – | > 512
